# According to patent publication US11771765B2, “Light augmented treatment method” (The Procter & Gamble Company, priority 2019, dated 2023):
# Read-outs that look alike come from different tables or passages of the source.
# Tests used:
# S. cerevisiae BY4741 = conditions: for 17 h growth: YNB Ethanol
# Protocol: (§1) Cells are grown in the medium of choice, generally one requiring respiration. In the case of Malassezia furfur that medium is modified Dixon medium (mDixon) (per one liter: 36 g malt extract (Difco 0186-17), 20 g ox bile (provided by American Laboratories, Inc., of Omaha, Nebraska, as Lot No. 03130792), 10 ml Tween 40 (Aldrich 27435-6), 6 g peptone (Difco 0118-17), 2 ml oleic acid (Baker 2114-01), and 2 ml glycerol (Sigma G-7893)). [Candida and YPG, Saccharomyces and YNB (without amino acids) to which we added 40 μg/ml each of uracil, histidine, and methionine plus 130 μg/ml leucine and 2% ethanol and 0.1% yeast extract.] Conventional medium may also be used for other microbials. Starting cultures are prepared by diluting a fresh overnight culture that is out of log phase 1:100 and incubating with shaking at 31° C. in a 250 mL shake flask (Corning, 431144) with 20 mL medium shaking at 200-250 rpm for about 3 hours to ensure the cells had returned to growth phase. At this time, the test agent is added to the flasks to afford the final concentration for testing. The cells are cultured for 1 hour with the test agent. At this time, the cells typically have an OD at 600 nm in the range of 0.25 to 0.8. Generally, we isolate 2.5 OD*mLs of cells calculated as desired OD*mLs divided by the OD600 of the cells. These media samples are centrifuged (Beckman Coulter Allegra™ 6KR centrifuge) 10 minutes at RT at 3200 rpm to pellet the cells. The supernatant is poured off and the tubes are set upside down on a folded paper towel to drain off the remains of media. Two and one half milliliters of PBS (Gibco, pH 7.4, without magnesium chloride or calcium chloride, 14190-144) is added and the cells resuspended. One mL of cells is transferred to each of two 12-well plates (Falcon, polystyrene, 353043). One plate is stored in the dark and the other is exposed to the light with the plate cover on the plate. […] When the light exposure is completed, the samples are mixed by slowly vortexing or pipetting and 0.65 mL of each sample is transferred to 13 mL of medium for overnight growth at 31° C. with shaking. The following morning, typically 18 hours later, the ODs at 600 nm are determined. Successful materials are those that show at least a 50% reduction in growth after light exposure relative to a dark sample.
# S. cerevisiae is exposed to light from LED flashlights of the indicated wavelength as well as a painter's light/worklight, commonly found at a hardware store, which provides a broad spectrum of wavelengths of light. Yeast has been pretreated as indicated, prior to light exposure.
# M. furfur = M. furfur growth after 20 min treatment, then 409 nm light or dark (Table 2); type: cell-based, Malassezia furfur
# Protocol: as §1
# M. furfur is incubated for twenty minutes with the indicated treatment. A cell pellet is collected after centrifugation so that most of the anti-fungal materials is expected to have been removed. The cell pellet is suspended in PBS and either treated with light (409 nm, 1100 foot candles) for ten minutes or stored in the dark for ten minutes. Samples are then diluted into mDixon with subsequent growth indicated by OD 600 nm.
# protoporphyrin IX (PPIX) = test: Protoporphyrin IX levels in treated M. furfur cells by HPLC; type: cell-based; conditions: increasing concentrations
# From the text: PPIX absorb light in the 400 nm range, and when light is absorbed, PPIX transitions to an excited triplet state that can react with triplet oxygen to produce singlet oxygen or the excited porphyrin can generate ROS through single electron processes. These reactive species result in a loss of cell viability.
# M. furfur cells are exposed to other antifungals that are not considered chelators (i.e. selenium sulfide (SeSx), Sulfur, Climbazole, and Terbinafine). After treatment, cells are then exposed to light, or not exposed to light. Both OD are measured to measure growth and PPIX levels are measured.
# C. albicans cells = test: Candida albicans spot plating after Piroctone Olamine and 409 nm light (Table 4); type: cell-based; design: key to spot plated growth (score): +: a continuous fungal lawn; +/−: a lawn with breaks allowing the agar to show; −: 0 to 5 colonies
# Protocol: Potentiation of Piroctone Olamine by light exposure is also observed in Candida albicans. […] Cells are then diluted as indicated in the left column, and spot plated. Resulting growth is then scored, as explained above.
# [1] = 8 ppm 20 min, Light 409 nm, 1100 foot candles, 10 min
# [2] = 16 ppm 20 min, Light 409 nm, 1100 foot candles, 10 min
# [3] = 24 ppm 20 min, Light 409 nm, 1100 foot candles, 10 min
# [4] = 32 ppm 20 min, Light 409 nm, 1100 foot candles, 10 min
# [5] = prior treatment, with the addition of light
smiles,measurement,setting,value
"[O-]n1ccccc1=S.[O-]n1ccccc1=S.[Zn+2] [ZPT, zinc salt of 1-hydroxy-2-pyridinethione]",17 h growth,"S. cerevisiae BY4741; 0.8 ppm, 395 nm light",0.7205
same,17 h growth,"S. cerevisiae BY4741; 0.8 ppm, 520 nm light",1.418
same,17 h growth,"S. cerevisiae BY4741; 0.8 ppm, 580 nm light",1.332
same,17 h growth,"S. cerevisiae BY4741; 0.8 ppm, Broad Spectrum light",0.525
same,17 h growth,"S. cerevisiae BY4741; 0.8 ppm, Dark",1.5185
same,17 h growth,"S. cerevisiae BY4741; 1.6 ppm, 395 nm light",0.3435
same,17 h growth,"S. cerevisiae BY4741; 1.6 ppm, 520 nm light",1.3615
same,17 h growth,"S. cerevisiae BY4741; 1.6 ppm, 580 nm light",0.9245
same,17 h growth,"S. cerevisiae BY4741; 1.6 ppm, Broad Spectrum light",0.303
same,17 h growth,"S. cerevisiae BY4741; 1.6 ppm, Dark",1.525
same,sensitivity of treated yeast to light,"S. cerevisiae BY4741; ZPT-treated, LED flashlights 395, 520, 580 nm","sensitive to a 395 nm flashlight, but not two other wavelengths of light"
same,"growth, OD 600 nm","M. furfur; 4 ppm 20 min, Dark 10 min",10.14
same,"growth, OD 600 nm","M. furfur; 4 ppm 20 min, Light 409 nm, 1100 foot candles, 10 min",4.86
same,"growth, OD 600 nm","M. furfur; 8 ppm 20 min, Dark 10 min",9.02
same,"growth, OD 600 nm",M. furfur; [1],3.16
same,"growth, OD 600 nm","M. furfur; 16 ppm 20 min, Dark 10 min",5.72
same,"growth, OD 600 nm",M. furfur; [2],0.24
same,growth inhibition,"M. furfur; 16 to 32 ppm, without light exposure",some growth inhibition
same,"growth, OD 600 nm","M. furfur; 24 ppm 20 min, Dark 10 min",5.54
same,"growth, OD 600 nm",M. furfur; [3],2.41
same,"growth, OD 600 nm","M. furfur; 32 ppm 20 min, Dark 10 min",2.61
same,"growth, OD 600 nm",M. furfur; [4],1.65
same,growth inhibition,M. furfur; [5],considerable growth inhibition
same,PPIX levels,protoporphyrin IX (PPIX),increased levels of PPIX
"Cc1cc(CC(C)CC(C)(C)C)n(O)c(=O)c1.NCCO (stereo not drawn) [Piroctone Olamine, 1-Hydroxy-4-methyl-6-(2,4,4-trimethylpentyl)-2-pyridone monoethanolamine salt]",spot plated growth (score),"C. albicans cells; 6 ppm, dilution 1:2, 15 minute 409 nm light",+
same,spot plated growth (score),"C. albicans cells; 6 ppm, dilution 1:2, Dark",+
same,spot plated growth (score),"C. albicans cells; 6 ppm, dilution 1:20, 15 minute 409 nm light",+
same,spot plated growth (score),"C. albicans cells; 6 ppm, dilution 1:20, Dark",+
same,spot plated growth (score),"C. albicans cells; 6 ppm, dilution 1:200, 15 minute 409 nm light",+/−
same,spot plated growth (score),"C. albicans cells; 6 ppm, dilution 1:200, Dark",+/−
same,spot plated growth (score),"C. albicans cells; 6 ppm, dilution 1:2000, 15 minute 409 nm light",+/−
same,spot plated growth (score),"C. albicans cells; 6 ppm, dilution 1:2000, Dark",+/−
same,growth with the addition of light,"C. albicans cells; 12 and 24 ppm dose, 409 nm light 15 min",complete inhibition of growth
same,spot plated growth (score),"C. albicans cells; 12 ppm, dilution 1:2, 15 minute 409 nm light",+
same,spot plated growth (score),"C. albicans cells; 12 ppm, dilution 1:2, Dark",+
same,spot plated growth (score),"C. albicans cells; 12 ppm, dilution 1:20, 15 minute 409 nm light",+/−
same,spot plated growth (score),"C. albicans cells; 12 ppm, dilution 1:20, Dark",+
same,spot plated growth (score),"C. albicans cells; 12 ppm, dilution 1:200, 15 minute 409 nm light",+/−
same,spot plated growth (score),"C. albicans cells; 12 ppm, dilution 1:200, Dark",+/−
same,spot plated growth (score),"C. albicans cells; 12 ppm, dilution 1:2000, 15 minute 409 nm light",− (0 to 5 colonies)
same,spot plated growth (score),"C. albicans cells; 12 ppm, dilution 1:2000, Dark",+/−
same,spot plated growth (score),"C. albicans cells; 24 ppm, dilution 1:2, 15 minute 409 nm light",+
same,spot plated growth (score),"C. albicans cells; 24 ppm, dilution 1:2, Dark",+
same,spot plated growth (score),"C. albicans cells; 24 ppm, dilution 1:20, 15 minute 409 nm light",+/−
same,spot plated growth (score),"C. albicans cells; 24 ppm, dilution 1:20, Dark",+
same,spot plated growth (score),"C. albicans cells; 24 ppm, dilution 1:200, 15 minute 409 nm light",+/−
same,spot plated growth (score),"C. albicans cells; 24 ppm, dilution 1:200, Dark",+/−
same,spot plated growth (score),"C. albicans cells; 24 ppm, dilution 1:2000, 15 minute 409 nm light",− (0 to 5 colonies)
same,spot plated growth (score),"C. albicans cells; 24 ppm, dilution 1:2000, Dark",+/−
same,"growth, OD 600 nm","M. furfur; 8 ppm 20 min, Dark 10 min",7.82
same,"growth, OD 600 nm",M. furfur; [1],7.35
same,"growth, OD 600 nm","M. furfur; 16 ppm 20 min, Dark 10 min",7.90
same,"growth, OD 600 nm",M. furfur; [2],0.07
same,"growth, OD 600 nm","M. furfur; 24 ppm 20 min, Dark 10 min",7.07
same,"growth, OD 600 nm",M. furfur; [3],0.03
same,"growth, OD 600 nm","M. furfur; 32 ppm 20 min, Dark 10 min",6.76
same,"growth, OD 600 nm",M. furfur; [4],0.02
same,"growth, OD 600 nm","M. furfur; 48 ppm 20 min, Dark 10 min",7.21
same,"growth, OD 600 nm","M. furfur; 48 ppm 20 min, Light 409 nm, 1100 foot candles, 10 min",0.03
same,"growth, OD 600 nm","M. furfur; 64 ppm 20 min, Dark 10 min",7.23
same,"growth, OD 600 nm","M. furfur; 64 ppm 20 min, Light 409 nm, 1100 foot candles, 10 min",0.02
same,growth inhibition,M. furfur; [5],considerable growth inhibition
same,PPIX levels,protoporphyrin IX (PPIX),increased levels of PPIX
